Reference: patent publication EP0511816B1, “Neurotrophic peptide derivative” (SUMITOMO PHARMACEUTICALS COMPANY, LIMITED, priority 1991, dated 1999)
Ends that are not written are not given here. Peptide text beside a SMILES is read from it.

Legend:
[1] = test system: tissue of medial septum nuclei; assay: neurotrophic activity: acceleration of acetylcholine synthesis in medial septum nuclei tissue (method of Ojika et al.); type: cell-based; details: qualitative statement, compared with rat-derived HCNP; no figures given
Text: The neurotrophic activity (also called neurotrophic factor activity) refers to, for example, an action of regulating differentiation and maturation of neuronal cells, namely, an action of accelerating the acetylcholine synthesis in the tissue of medial septum nuclei which is rich in cholinergic neurons.
The human-derived neurotrophic peptide or its derivatives of the present invention can regulate differentiation and maturation of neuronal cells. That is, the neurotrophic peptide and derivatives thereof accelerate the acetylcholine synthesis in the tissue of medial septum nuclei. The biological activity can be determined by the method of Ojika, K., et al. (Reference 66).

[2] = test system: tissue of medial septum nuclei; details: rat medial septum nuclei acetylcholinergic neuron; Reference 1; cited from earlier work

Compound | neurotrophic activity [1] | production of acetylcholine [2]
CC(C)C[C@H](NC(=O)[C@@H]1CCCN1C(=O)CNC(=O)[C@H](CO)NC(=O)[C@H](Cc1c[nH]c2ccccc12)NC(=O)[C@H](CCCCN)NC(=O)[C@H](CO)NC(=O)[C@H](CC(C)C)NC(=O)[C@H](CC(=O)O)NC(=O)[C@@H](NC(=O)[C@@H]1CCCN1)C(C)C)C(=O)O [hHCNP] (H-PVDLSKWSGPL-OH) | neurotrophic activity similar to rat-derived HCNP was noted | –
AADISQWAGPL [HCNP, Hippocampal cholinergic neurotrophic peptide of 11 amino acid residues isolated from hippocampal tissue of neonatal rat by Ojika et al] | – | enhances production of acetylcholine
